{
  "source": "the supplement of paper PMC10307832",
  "experiment_in_all_cases": "relative viability (nuclei count vs DMSO), 5 days (fraction); higher = more cells survive",
  "key": {"[1]": {"system": "201T", "method_in_brief": "(§1)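 Relative viability was taken as the ratio of nuclei in treated wells to nuclei in vehicle wells. Lung cancer cell lines in 1536-well plates received compounds by pin tool one day after seeding, either one drug alone or a fixed anchor-drug dose plus five library-drug doses (not always all listed) in √10 steps. Nuclei were counted on 4× images after 5 days of treatment, and values are medians of duplicate plates.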"}, "[2]": {"system": "ChaGo-K-1", "method_in_brief": "as §1"}, "[3]": {"system": "HCC-78", "method_in_brief": "as §1"}, "[4]": {"system": "HCC-827", "method_in_brief": "as §1"}, "[5]": {"system": "LCLC-97TM1", "method_in_brief": "as §1"}, "[6]": {"system": "LOU-NH91", "method_in_brief": "as §1"}, "[7]": {"system": "NCI-H1437", "method_in_brief": "as §1"}, "[8]": {"system": "NCI-H1755", "method_in_brief": "as §1"}, "[9]": {"system": "NCI-H1792", "method_in_brief": "as §1"}, "[10]": {"system": "NCI-H2023", "method_in_brief": "as §1"}, "[11]": {"system": "NCI-H2085", "method_in_brief": "as §1"}, "[12]": {"system": "NCI-H2126", "method_in_brief": "as §1"}, "[13]": {"system": "NCI-H2170", "method_in_brief": "as §1"}, "[14]": {"system": "NCI-H2405", "method_in_brief": "as §1"}, "[15]": {"system": "NCI-H441", "method_in_brief": "as §1"}, "[16]": {"system": "NCI-H596", "method_in_brief": "as §1"}, "[17]": {"system": "NCI-H727", "method_in_brief": "as §1"}, "[18]": {"system": "RERF-LC-KJ", "method_in_brief": "as §1"}, "[19]": {"system": "SK-MES-1", "method_in_brief": "as §1"}},
  "data": [
    {"smiles": "COCC1(CO)C(=O)C2CCN1CC2", "note": "(configuration not stated) [PRIMA-1MET] + CC1(C)CCC(c2ccc(Cl)cc2)=C(CN2CCN(c3ccc(C(=O)NS(=O)(=O)c4ccc(N[C@H](CCN5CCOCC5)CSc5ccccc5)c(S(=O)(=O)C(F)(F)F)c4)cc3)CC2)C1 [Navitoclax] (partner 0.5 µM)", "values": [
      {"measurement": "relative viability", "setting": "[1]; first compound 0.2 µM", "result": 1.31},
      {"measurement": "relative viability", "setting": "[1]; first compound 0.6325 µM", "result": 1.17},
      {"measurement": "relative viability", "setting": "[1]; first compound 2 µM", "result": 1.13},
      {"measurement": "relative viability", "setting": "[1]; first compound 6.325 µM", "result": 1.27},
      {"measurement": "relative viability", "setting": "[1]; first compound 20 µM", "result": 1.2},
      {"measurement": "relative viability", "setting": "[2]; first compound 0.2 µM", "result": 1.08},
      {"measurement": "relative viability", "setting": "[2]; first compound 0.6325 µM", "result": 0.667},
      {"measurement": "relative viability", "setting": "[2]; first compound 2 µM", "result": 1.11},
      {"measurement": "relative viability", "setting": "[2]; first compound 6.325 µM", "result": 1.11},
      {"measurement": "relative viability", "setting": "[2]; first compound 20 µM", "result": 0.404},
      {"measurement": "relative viability", "setting": "[3]; first compound 0.2 µM", "result": 0.876},
      {"measurement": "relative viability", "setting": "[3]; first compound 0.6325 µM", "result": 0.77},
      {"measurement": "relative viability", "setting": "[3]; first compound 6.325 µM", "result": 0.787},
      {"measurement": "relative viability", "setting": "[3]; first compound 20 µM", "result": 0.0496},
      {"measurement": "relative viability", "setting": "[4]; first compound 0.2 µM", "result": 1.01},
      {"measurement": "relative viability", "setting": "[4]; first compound 0.6325 µM", "result": 0.9},
      {"measurement": "relative viability", "setting": "[4]; first compound 2 µM", "result": 0.721},
      {"measurement": "relative viability", "setting": "[4]; first compound 6.325 µM", "result": 1},
      {"measurement": "relative viability", "setting": "[4]; first compound 20 µM", "result": 1.03},
      {"measurement": "relative viability", "setting": "[5]; first compound 0.2 µM", "result": 0.605},
      {"measurement": "relative viability", "setting": "[5]; first compound 2 µM", "result": 0.644},
      {"measurement": "relative viability", "setting": "[5]; first compound 6.325 µM", "result": 0.531},
      {"measurement": "relative viability", "setting": "[5]; first compound 20 µM", "result": 0.0875},
      {"measurement": "relative viability", "setting": "[6]; first compound 0.2 µM", "result": 0.729},
      {"measurement": "relative viability", "setting": "[6]; first compound 0.6325 µM", "result": 0.677},
      {"measurement": "relative viability", "setting": "[6]; first compound 2 µM", "result": 0.589},
      {"measurement": "relative viability", "setting": "[6]; first compound 6.325 µM", "result": 0.601},
      {"measurement": "relative viability", "setting": "[6]; first compound 20 µM", "result": 0.383},
      {"measurement": "relative viability", "setting": "[7]; first compound 0.2 µM", "result": 1.14},
      {"measurement": "relative viability", "setting": "[7]; first compound 0.6325 µM", "result": 1.05},
      {"measurement": "relative viability", "setting": "[7]; first compound 2 µM", "result": 1.08},
      {"measurement": "relative viability", "setting": "[7]; first compound 6.325 µM", "result": 1.14},
      {"measurement": "relative viability", "setting": "[7]; first compound 20 µM", "result": 0.968},
      {"measurement": "relative viability", "setting": "[8]; first compound 0.2 µM", "result": 1.07},
      {"measurement": "relative viability", "setting": "[8]; first compound 0.6325 µM", "result": 1.01},
      {"measurement": "relative viability", "setting": "[8]; first compound 2 µM", "result": 0.535},
      {"measurement": "relative viability", "setting": "[8]; first compound 6.325 µM", "result": 0.953},
      {"measurement": "relative viability", "setting": "[8]; first compound 20 µM", "result": 1.05},
      {"measurement": "relative viability", "setting": "[9]; first compound 0.2 µM", "result": 0.525},
      {"measurement": "relative viability", "setting": "[9]; first compound 0.6325 µM", "result": 0.48},
      {"measurement": "relative viability", "setting": "[9]; first compound 2 µM", "result": 0.589},
      {"measurement": "relative viability", "setting": "[9]; first compound 6.325 µM", "result": 0.617},
      {"measurement": "relative viability", "setting": "[9]; first compound 20 µM", "result": 0.544},
      {"measurement": "relative viability", "setting": "[10]; first compound 0.2 µM", "result": 1.04},
      {"measurement": "relative viability", "setting": "[10]; first compound 0.6325 µM", "result": 0.999},
      {"measurement": "relative viability", "setting": "[10]; first compound 2 µM", "result": 0.992},
      {"measurement": "relative viability", "setting": "[10]; first compound 6.325 µM", "result": 1.07},
      {"measurement": "relative viability", "setting": "[10]; first compound 20 µM", "result": 0.977},
      {"measurement": "relative viability", "setting": "[11]; first compound 0.2 µM", "result": 1.2},
      {"measurement": "relative viability", "setting": "[11]; first compound 0.6325 µM", "result": 1.04},
      {"measurement": "relative viability", "setting": "[11]; first compound 2 µM", "result": 1.09},
      {"measurement": "relative viability", "setting": "[11]; first compound 6.325 µM", "result": 0.734},
      {"measurement": "relative viability", "setting": "[11]; first compound 20 µM", "result": 0.364},
      {"measurement": "relative viability", "setting": "[12]; first compound 0.2 µM", "result": 0.931},
      {"measurement": "relative viability", "setting": "[12]; first compound 0.6325 µM", "result": 0.833},
      {"measurement": "relative viability", "setting": "[12]; first compound 2 µM", "result": 0.897},
      {"measurement": "relative viability", "setting": "[12]; first compound 6.325 µM", "result": 0.852},
      {"measurement": "relative viability", "setting": "[12]; first compound 20 µM", "result": 0.839},
      {"measurement": "relative viability", "setting": "[13]; first compound 0.2 µM", "result": 0.621},
      {"measurement": "relative viability", "setting": "[13]; first compound 0.6325 µM", "result": 0.543},
      {"measurement": "relative viability", "setting": "[13]; first compound 2 µM", "result": 0.456},
      {"measurement": "relative viability", "setting": "[13]; first compound 6.325 µM", "result": 0.622},
      {"measurement": "relative viability", "setting": "[13]; first compound 20 µM", "result": 0.554},
      {"measurement": "relative viability", "setting": "[14]; first compound 0.2 µM", "result": 0.676},
      {"measurement": "relative viability", "setting": "[14]; first compound 0.6325 µM", "result": 0.989},
      {"measurement": "relative viability", "setting": "[14]; first compound 6.325 µM", "result": 0.52},
      {"measurement": "relative viability", "setting": "[14]; first compound 20 µM", "result": 0.078},
      {"measurement": "relative viability", "setting": "[15]; first compound 0.2 µM", "result": 0.561},
      {"measurement": "relative viability", "setting": "[15]; first compound 0.6325 µM", "result": 0.334},
      {"measurement": "relative viability", "setting": "[15]; first compound 2 µM", "result": 1.02},
      {"measurement": "relative viability", "setting": "[15]; first compound 6.325 µM", "result": 0.644},
      {"measurement": "relative viability", "setting": "[15]; first compound 20 µM", "result": 0.0807},
      {"measurement": "relative viability", "setting": "[16]; first compound 0.2 µM", "result": 1},
      {"measurement": "relative viability", "setting": "[16]; first compound 0.6325 µM", "result": 0.797},
      {"measurement": "relative viability", "setting": "[16]; first compound 2 µM", "result": 1.01},
      {"measurement": "relative viability", "setting": "[16]; first compound 6.325 µM", "result": 1.08},
      {"measurement": "relative viability", "setting": "[16]; first compound 20 µM", "result": 0.982},
      {"measurement": "relative viability", "setting": "[17]; first compound 0.2 µM", "result": 0.54},
      {"measurement": "relative viability", "setting": "[17]; first compound 0.6325 µM", "result": 0.41},
      {"measurement": "relative viability", "setting": "[17]; first compound 2 µM", "result": 0.398},
      {"measurement": "relative viability", "setting": "[17]; first compound 6.325 µM", "result": 0.311},
      {"measurement": "relative viability", "setting": "[17]; first compound 20 µM", "result": 0.105},
      {"measurement": "relative viability", "setting": "[18]; first compound 0.2 µM", "result": 1.33},
      {"measurement": "relative viability", "setting": "[18]; first compound 0.6325 µM", "result": 0.929},
      {"measurement": "relative viability", "setting": "[18]; first compound 2 µM", "result": 0.833},
      {"measurement": "relative viability", "setting": "[18]; first compound 6.325 µM", "result": 0.837},
      {"measurement": "relative viability", "setting": "[18]; first compound 20 µM", "result": 0.814},
      {"measurement": "relative viability", "setting": "[19]; first compound 0.2 µM", "result": 1.2},
      {"measurement": "relative viability", "setting": "[19]; first compound 0.6325 µM", "result": 1.28},
      {"measurement": "relative viability", "setting": "[19]; first compound 2 µM", "result": 1.19},
      {"measurement": "relative viability", "setting": "[19]; first compound 6.325 µM", "result": 1.27},
      {"measurement": "relative viability", "setting": "[19]; first compound 20 µM", "result": 1.23}
    ]}
  ]
}
